From patent publication US20100160369A1, “S1P1 Agonists and Methods of Making And Using” (EXELIXIS, INC., priority 2008, published 2010)
Like-named read-outs stand apart in the source and are kept apart here.

Biological target: S1P1 (Homo sapiens, UniProt P21453)
Assay: CNG cAMP Assay (Assay 1)
Format: cell-based
Design: host or cells: HEK293 cells expressing the CNG channel
Procedure: Frozen HEK293 cells expressing the CNG channel and S1P1 (BD Biosciences, San Jose, Calif.) were thawed and plated into the wells of a black, clear bottom, 384-well CellBind plate (Corning, Corning, N.Y.) at 14,000 cells per well. HEK293 cells expressing the CNG channel and CB1 (BD Biosciences) were cultured and plated under the same conditions. The cells were incubated for 16 h at 37° C. in complete DMEM medium (Invitrogen Carlsbad, Calif.) containing 10% FBS (HyClone Logan, Utah), 250 μg/mL geneticin (Invitrogen), and 1 μg/mL puromycin (Sigma-Aldrich, St. Louis, Mo.). A membrane potential dye (BD Biosciences) was added and the plates were incubated for 2-2.5 h at room temperature.
Test compounds were tested at maximum concentrations of 10 μM. Compounds were diluted in DMSO (10 concentration points, 3-fold each) and added to the assay plate at final DMSO concentrations of 1.8%. For each compound, there were duplicate assay plates and each assay plate had duplicate wells per concentration point. Test compounds were added to the cells in a DPBS solution containing 25 μM Ro 20-1724 (Sigma-Aldrich), 500 nM of the A2b receptor agonist NECA (Sigma-Aldrich) and 10 nM (EC95) of S1P (Avanti Alabaster, Ala.) and incubated for 90 min. The assay plate was read before compound addition (T0) and after the 90 min incubation (T90) using an EnVision plate reader (PerkinElmer, Waltham, Mass.) at an excitation wavelength of 350 nm and an emission wavelength of 590 nm. The T90/T0 ratio was determined for each concentration of the test compounds. The percent agonist activity was determined as [(test compound−DMSO alone control)/(NECA alone control−DMSO alone control)*100]. The percent activities were plotted against compound concentration to determine EC50 using XLFit (IDBS, Alameda, Calif.). The control used for calculating rEC50 in the S1P1 CNG agonist assay was DMSO.
Assay 1 is the CNG cAMP Assay as described in Biological Example 1. Assay 2a and 2b are the Tango™ β-arrestin Recruitment Assay in HEK293 and U2OS cells, respectively, as described in Biological Example 2. Assay 3a is the hS1P1R GTPγS Binding Assay as described in Biological Example 3. Assay 3b is the GTP-Eu Binding Assay as described in Biological Example 3. EC50's were measured unless otherwise noted. […] In the table, “nt” means the Compound was not tested and “no” means the compound was tested but had no measurable activity under the assay conditions employed.

[1] = footnote 1: Relative EC50 was measured, read-out: Assay 1 Relative EC50

Sequence of S1P1 (P21453 whole entry): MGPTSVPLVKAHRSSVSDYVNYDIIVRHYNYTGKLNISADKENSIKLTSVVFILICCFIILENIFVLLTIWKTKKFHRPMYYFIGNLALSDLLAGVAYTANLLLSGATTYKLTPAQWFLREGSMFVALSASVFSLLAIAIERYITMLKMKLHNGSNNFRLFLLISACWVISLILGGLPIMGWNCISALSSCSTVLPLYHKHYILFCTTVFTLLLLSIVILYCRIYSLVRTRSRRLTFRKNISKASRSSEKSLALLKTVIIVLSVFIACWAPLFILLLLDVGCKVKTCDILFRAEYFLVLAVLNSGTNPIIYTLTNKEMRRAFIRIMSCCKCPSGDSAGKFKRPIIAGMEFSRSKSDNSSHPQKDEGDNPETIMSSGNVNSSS

SMILES | EC50 (read-out: Assay 1 EC50) [nM] | EC50 [1] [nM]
O=C(O)C1CN(Cc2cccc(-c3noc(-c4cn5cc(C(F)(F)F)cc(Cl)c5n4)n3)c2)C1 [Example 121, 1-[(3-{5-[8-chloro-6-(trifluoromethyl)imidazo[1,2-a]pyridin-2-yl]-1,2,4-oxadiazol-3-yl}phenyl)methyl]azetidine-3-carboxylic acid] | 500 to 1000 | 
Cc1c(Cl)cn2cc(-c3nc(-c4cc(F)c(CCC(=O)O)cc4Cl)no3)nc2c1Cl [Entry 35] | 500 to 1000 | 
CS(=O)(=O)CCc1ccc(-c2noc(-c3cn4cc(C(F)(F)F)cc(Cl)c4n3)n2)c(Cl)c1 [Example 140, 8-chloro-2-(3-{2-chloro-4-[2-(methylsulfonyl)ethyl]phenyl}-1,2,4-oxadiazol-5-yl)-6-(trifluoromethyl)imidazo[1,2-a]pyridine] | ≤ 100 | 
Cc1c(Br)cc(Br)c2nc(-c3nc(-c4cc(F)c(CCC(=O)O)cc4Cl)no3)cn12 [Entry 62] | ≤ 100 | 
O=C(O)CCc1ccc(-c2noc(-c3cn4cc(C(F)(F)F)cc(Cl)c4n3)n2)c(C(F)(F)F)c1 [Entry 8] | ≤ 100 | 
Fc1ccc(-c2noc(-c3cn4cc(C(F)(F)F)cc(Cl)c4n3)n2)c(F)c1 [Example 146, 8-chloro-2-[3-(2,4-difluorophenyl)-1,2,4-oxadiazol-5-yl]-6-(trifluoromethyl)imidazo[1,2-a]pyridine] | 500 to 1000 | 
Cc1cc(-c2noc(-c3cn4cc(C(F)(F)F)cc(Cl)c4n3)n2)cc(C)c1O[C@@H](C)CO [Example 107, (2S)-2-[(4-{5-[8-chloro-6-(trifluoromethyl)imidazo[1,2-a]pyridin-2-yl]-1,2,4-oxadiazol-3-yl}-2,6-dimethylphenyl)oxy]propan-1-ol] | ≤ 100 | 
C=CS(=O)(=O)Nc1ccc(-c2noc(-c3cn4cc(C(F)(F)F)cc(Cl)c4n3)n2)c(Cl)c1 [Example 128, N-(3-chloro-4-{5-[8-chloro-6-(trifluoromethyl)imidazo[1,2-a]pyridin-2-yl]-1,2,4-oxadiazol-3-yl}phenyl)ethenesulfonamide] | 100 to 500 | 
OC[C@@H]1C[C@H](Oc2ccc(-c3noc(-c4cn5cc(C(F)(F)F)cc(Cl)c5n4)n3)c(Cl)c2)CN1 [Example 87, {(2S,4S)-4-[(3-chloro-4-{5-[8-chloro-6-(trifluoromethyl)imidazo[1,2-a]pyridin-2-yl]-1,2,4-oxadiazol-3-yl}phenyl)oxy]pyrrolidin-2-yl}methanol] | ≤ 100 | 
Fc1cccc(Cl)c1-c1noc(-c2cn3cc(C(F)(F)F)cc(Cl)c3n2)n1 [Example 163, 8-chloro-2-[3-(2-chloro-6-fluorophenyl)-1,2,4-oxadiazol-5-yl]-6-(trifluoromethyl)imidazo[1,2-a]pyridine] | 100 to 500 | 
O=C(O)CNc1ccc(-c2noc(-c3cn4cc(C(F)(F)F)cc(Cl)c4n3)n2)c(Cl)c1 [Example 103, N-(3-chloro-4-{5-[8-chloro-6-(trifluormethyl)imidazo[1,2-a]pyridin-2-yl]-1,2,4-oxadiazol-3-yl}phenyl)glycine] | 100 to 500 | 
Cc1cc(-c2noc(-c3cn4cc(C(F)(F)F)cc(Cl)c4n3)n2)ccc1C1CC1C(=O)O (centres unmarked) [Example 86, 2-(4-{5-[8-chloro-6-(trifluoromethyl)imidazo[1,2-a]pyridin-2-yl]-1,2,4-oxadiazol-3-yl}-2-methylphenyl)cyclopropanecarboxylic acid] | 100 to 500 | 
Cc1cc(F)ccc1-c1noc(-c2cn3cc(C(F)(F)F)cc(Cl)c3n2)n1 [Example 152, 8-chloro-2-[3-(4-fluoro-2-methylphenyl)-1,2,4-oxadiazol-5-yl]-6-(trifluoromethyl)imidazo[1,2-a]pyridine] | ≤ 100 | 
Fc1cccc(-c2noc(-c3cn4cc(C(F)(F)F)cc(Cl)c4n3)n2)c1Cl [Example 157, 8-chloro-2-[3-(2-chloro-3-fluorophenyl)-1,2,4-oxadiazol-5-yl]-6-(trifluoromethyl)imidazo[1,2-a]pyridine] | 100 to 500 | 

Now from value to compound:

EC50 (read-out: Assay 1 EC50) [nM] | EC50 [1] [nM] | SMILES
1000 to 5000 |  | FC(F)(F)c1cc(Cl)c2nc(-c3nc(-c4cnccc4C(F)(F)F)no3)cn2c1 [Example 290, 8-chloro-6-(trifluoromethyl)-2-{3-[4-(trifluoromethyl)pyridin-3-yl]-1,2,4-oxadiazol-5-yl}imidazo[1,2-a]pyridine]
100 to 500 |  | Fc1ccc(-c2nc(-c3cn4cc(C(F)(F)F)cc(Cl)c4n3)no2)c(Cl)c1 [Example 232, 8-chloro-2-[5-(2-chloro-4-fluorophenyl)-1,2,4-oxadiazol-3-yl]-6-(trifluoromethyl)imidazo[1,2-a]pyridine]
≤ 100 |  | O=C(O)[C@@H]1C[C@H](Oc2ccc(-c3noc(-c4cn5cc(C(F)(F)F)cc(Cl)c5n4)n3)c(Cl)c2)CN1 [Example 276, (4S)-4-[(3-chloro-4-{5-[8-chloro-6-(trifluoromethyl)imidazo[1,2-a]pyridin-2-yl]-1,2,4-oxadiazol-3-yl}phenyl)oxy]-L-proline]
≤ 100 |  | Oc1ccc(-c2noc(-c3cn4cc(C(F)(F)F)cc(Cl)c4n3)n2)c(Cl)c1 [Example 187, 3-chloro-4-{5-[8-chloro-6-(trifluoromethyl)imidazo[1,2-a]pyridin-2-yl]-1,2,4-oxadiazol-3-yl}phenol]
 | 1000 to 5000 | CC(C)(CO)Oc1c(F)cc(-c2noc(-c3cn4cc(C(F)(F)F)cc(Cl)c4n3)n2)cc1Cl [Example 262, 2-[(2-chloro-4-{5-[8-chloro-6-(trifluoromethyl)imidazo[1,2-a]pyridin-2-yl]-1,2,4-oxadiazol-3-yl}-6-fluorophenyl)oxy]-2-methylpropan-1-ol]
 | 5000 to 10000 | CS(=O)(=O)Nc1c(F)cc(-c2nc(-c3cn4cc(C(F)(F)F)cc(Cl)c4n3)no2)cc1Cl [Example 236, N-(2-chloro-4-{3-[8-chloro-6-(trifluoromethyl)imidazo[1,2-a]pyridin-2-yl]-1,2,4-oxadiazol-5-yl}-6-fluorophenyl)methane sulfonamide]
≤ 100 |  | Oc1cc(Cl)c(-c2noc(-c3cn4cc(C(F)(F)F)cc(Cl)c4n3)n2)cc1F [Example 260, 5-chloro-4-{5-[8-chloro-6-(trifluoromethyl)imidazo[1,2-a]pyridin-2-yl]-1,2,4-oxadiazol-3-yl}-2-fluorophenol]
500 to 1000 |  | FC(F)(F)c1ccc(-c2noc(-c3cn4cc(C(F)(F)F)cc(Cl)c4n3)n2)c(Cl)c1 [Example 183, 8-chloro-2-{3-[2-chloro-4-(trifluoromethyl)phenyl]-1,2,4-oxadiazol-5-yl}-6-(trifluoromethyl)imidazo[1,2-a]pyridine]
100 to 500 |  | NC(CC(=O)O)c1ccc(-c2noc(-c3cn4cc(C(F)(F)F)cc(Cl)c4n3)n2)c(Cl)c1 (centres unmarked) [Example 193, 3-amino-3-(3-chloro-4-{5-[8-chloro-6-(trifluoromethyl)imidazo[1,2-a]pyridin-2-yl]-1,2,4-oxadiazol-3-yl}phenyl)propanoic acid]
≤ 100 |  | CC(CO)Oc1c(F)cc(-c2noc(-c3cn4cc(C(F)(F)F)cc(Cl)c4n3)n2)cc1Cl (centres unmarked) [Example 261, 2-[(2-chloro-4-{5-[8-chloro-6-(trifluoromethyl)imidazo[1,2-a]pyridin-2-yl]-1,2,4-oxadiazol-3-yl}-6-fluorophenyl)oxy]propan-1-ol]
100 to 500 |  | Fc1cccc(F)c1-c1nc(-c2cn3cc(C(F)(F)F)cc(Cl)c3n2)no1 [Example 228, 8-chloro-2-[5-(2,6-difluorophenyl)-1,2,4-oxadiazol-3-yl]-6-(trifluoromethyl)imidazo[1,2-a]pyridine]
≤ 100 |  | Fc1cc(-c2noc(-c3cn4cc(C(F)(F)F)cc(Cl)c4n3)n2)c(Cl)cc1OC1CCNC1 (centres unmarked) [Example 264, 8-chloro-2-{3-[2-chloro-5-fluoro-4-(pyrrolidin-3-yloxy)phenyl]-1,2,4-oxadiazol-5-yl}-6-(trifluoromethyl)imidazo[1,2-a]pyridine]
≤ 100 |  | FC(F)(F)c1cc(Cl)c2nc(-c3nc(-c4ccccc4Cl)no3)cn2c1 [Example 273, 8-chloro-2-[3-(2-chlorophenyl)-1,2,4-oxadiazol-5-yl]-6-(trifluoromethyl)imidazo[1,2-a]pyridine]
500 to 1000 |  | CS(=O)(=O)Nc1c(F)cc(-c2noc(-c3cn4cc(C(F)(F)F)cc(Cl)c4n3)n2)cc1Cl [Example 268, N-(2-chloro-4-{5-[8-chloro-6-(trifluoromethyl)imidazo[1,2-a]pyridin-2-yl]-1,2,4-oxadiazol-3-yl}-6-fluorophenyl)methane sulfonamide]
100 to 500 |  | FC(F)(F)c1cc(Cl)c2nc(-c3nc(-c4ccc5[nH]cnc5c4)no3)cn2c1 [Example 164, 5-{5-[8-chloro-6-(trifluoromethyl)imidazo[1,2-a]pyridin-2-yl]-1,2,4-oxadiazol-3-yl}-1H-benzimidazole]
